Earlier results in patent publication US20130281718A1, “HIGH-FLUIDITY NON-CAKING DIANHYDROHEXITOL PELLETS” (ROQUETTE FRERES, priority 2010, published 2013).

Settings: addition of 0.005% by weight of butyl cellulose acetate; pressure of 0.23 bar after forming

**Q.** Which Time without caking does the source give for `CC(C)(CO)CO` [neopentyl glycol] here?
**A.** The Time without caking was 30 days.
